# In patent US20260132132A1, “3A,4,5,6-TETRAHYDRO-1 H-PYRAZOLO[3,4-C]PYRIDIN-7(7AH)-ONE DERIVATIVES AS FACTOR XIIA INHIBITORS” (KALVISTA PHARMACEUTICALS LIMITED, priority 2022, published 2026):
# Assays:
# [1] = target: T1, Human Factor XIIa (hFXIIa) (Homo sapiens, UniProt P00748); test: Determination of Human Factor XIIa (hFXIIa) inhibition, fluorogenic substrate IC50 assay; type: biochemical; settings: fluorogenic substrate H-DPro-Phe-Arg-AFC at Km, 25° C., read-out: Human FXIIa IC50
# T1 construct: purchased Enzyme Research Laboratories
# T1 sequence (P00748 373-615 limits assumed): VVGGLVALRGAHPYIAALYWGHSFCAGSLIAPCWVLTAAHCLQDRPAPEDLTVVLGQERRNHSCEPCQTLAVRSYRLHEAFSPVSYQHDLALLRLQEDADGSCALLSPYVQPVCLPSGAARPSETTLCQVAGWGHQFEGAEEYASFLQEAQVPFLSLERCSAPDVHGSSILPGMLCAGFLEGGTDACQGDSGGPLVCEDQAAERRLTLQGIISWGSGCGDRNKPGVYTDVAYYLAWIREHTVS
# T1 sequence (P00748 20-372 partner limits assumed): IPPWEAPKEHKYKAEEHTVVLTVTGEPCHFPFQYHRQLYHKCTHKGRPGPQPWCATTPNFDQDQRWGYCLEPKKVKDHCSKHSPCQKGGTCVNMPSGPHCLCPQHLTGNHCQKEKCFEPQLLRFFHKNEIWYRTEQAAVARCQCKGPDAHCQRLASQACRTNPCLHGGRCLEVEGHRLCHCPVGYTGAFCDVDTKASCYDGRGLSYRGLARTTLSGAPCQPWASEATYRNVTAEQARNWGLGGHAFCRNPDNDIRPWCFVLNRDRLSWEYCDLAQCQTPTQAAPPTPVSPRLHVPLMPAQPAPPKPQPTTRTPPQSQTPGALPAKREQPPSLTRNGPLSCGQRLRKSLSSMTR
# Description: Determination of Human Factor XIIa (hFXIIa) inhibition
# The Km for the cleavage of the substrate by hFXIIa was determined by standard transformation of the Michaelis-Menten equation, with subsequent inhibition assays performed at substrate Km concentration.
# FXa = FXa (Homo sapiens, UniProt P00742); test: Related protease inhibition: FXa, fluorogenic substrate; type: biochemical; settings: fluorogenic substrate at Km, 25° C.; H1-H3 = % activity at 40 μM
# Chain of FXa (P00742 235-488 limits assumed): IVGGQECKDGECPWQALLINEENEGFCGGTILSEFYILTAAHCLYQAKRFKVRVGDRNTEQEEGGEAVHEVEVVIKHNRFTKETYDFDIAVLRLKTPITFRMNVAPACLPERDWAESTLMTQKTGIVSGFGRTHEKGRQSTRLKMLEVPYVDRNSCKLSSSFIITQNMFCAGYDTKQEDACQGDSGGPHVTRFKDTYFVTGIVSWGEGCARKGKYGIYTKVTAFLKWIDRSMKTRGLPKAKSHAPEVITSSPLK
# Chain of FXa (P00742 41-179 partner limits assumed): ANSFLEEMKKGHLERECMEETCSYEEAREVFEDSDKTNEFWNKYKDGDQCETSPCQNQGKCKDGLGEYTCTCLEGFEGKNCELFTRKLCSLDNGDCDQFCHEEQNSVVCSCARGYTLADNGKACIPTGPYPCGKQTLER
# Description: Human serine protease enzyme Plasma Kallikrein, KLK1, FXa, Plasmin, Thrombin and Trypsin were assayed for enzymatic activity using an appropriate fluorogenic substrate at Km concentration, FXIa at fixed substrate concentration of 100 μM and various concentrations of the test compound.
Structure (SMILES),IC50 [1],IC50 (FXa)
"CN1CCc2ccc(N3CCc4c(C(=O)NC5(C)CCOCC5)nn(-c5cccc(Cl)c5)c4C3=O)cc2C1=O [Example 1266, 1-(3-chlorophenyl)-6-(2-methyl-1-oxo-1,2,3,4-tetrahydroisoquinolin-7-yl)-N-(4-methyltetrahydro-2H-pyran-4-yl)-7-oxo-4,5,6,7-tetrahydro-1H-pyrazolo[3,4-c]pyridine-3-carboxamide]",300 to 1000 nM,> 40 µM
"CN1CCc2ccc(N3CCc4c(COC5(C)COC5)nn(-c5cccc(Cl)c5)c4C3=O)cc2C1=O [Example 1354, 7-(1-(3-chlorophenyl)-3-(((3-methyloxetan-3-yl)oxy)methyl)-7-oxo-1,4,5,7-tetrahydro-6H-pyrazolo[3,4-c]pyridin-6-yl)-2-methyl-3,4-dihydroisoquinolin-1 (2H)-one]",1000 to 3000 nM,10 to 40 µM
"CN1CCc2ccc(N3CCc4c(C(=O)NCc5cccnc5)nn(-c5cccc(Cl)c5)c4C3=O)cc2C1 [Example 1015, 1-(3-chlorophenyl)-6-(2-methyl-1,2,3,4-tetrahydroisoquinolin-7-yl)-7-oxo-N-(pyridin-3-ylmethyl)-4,5,6,7-tetrahydro-1H-pyrazolo[3,4-c]pyridine-3-carboxamide]",100 to 300 nM,10 to 40 µM
"Cc1cc(CNC(=O)c2nn(-c3cccc(Cl)c3)c3c2CCN(c2ccc4c(c2)C(=O)N(CC(N)=O)CCO4)C3=O)nn1C [Example 1393, 6-(4-(2-amino-2-oxoethyl)-5-oxo-2,3,4,5-tetrahydrobenzo[f][1,4]oxazepin-7-yl)-1-(3-chlorophenyl)-N-((1,5-dimethyl-1H-pyrazol-3-yl)methyl)-7-oxo-4,5,6,7-tetrahydro-1H-pyrazolo[3,4-c]pyridine-3-carboxamide]",10 to 100 nM,1 to 3 µM
"O=C(NCC1CC1(F)F)c1nn(-c2cccc(Cl)c2)c2c1CCN(c1ccc3c(c1)CN(CCO)CC3)C2=O (centres unmarked) [Example 1142, 1-(3-chlorophenyl)-N-((2,2-difluorocyclopropyl)methyl)-6-(2-(2-hydroxyethyl)-1,2,3,4-tetrahydroisoquinolin-7-yl)-7-oxo-4,5,6,7-tetrahydro-1H-pyrazolo[3,4-c]pyridine-3-carboxamide]",100 to 300 nM,> 40 µM
"CCNC(=O)c1nn(-c2cccc(Cl)c2)c2c1CCN(c1ccc3c(c1)CN(C)CC3)C2=O [Example 1014, 1-(3-chlorophenyl)-N-ethyl-6-(2-methyl-1,2,3,4-tetrahydroisoquinolin-7-yl)-7-oxo-4,5,6,7-tetrahydro-1H-pyrazolo[3,4-c]pyridine-3-carboxamide]",300 to 1000 nM,10 to 40 µM
"Cc1cc(CNC(=O)c2nn(-c3cccc(Cl)c3)c3c2CCN(c2ccc4c(c2)C(=O)N(C)CC(=O)N4C)C3=O)nn1C [Example 1372, 1-(3-chlorophenyl)-N-((1,5-dimethyl-1H-pyrazol-3-yl)methyl)-6-(1,4-dimethyl-2,5-dioxo-2,3,4,5-tetrahydro-1H-benzo[e][1,4]diazepin-7-yl)-7-oxo-4,5,6,7-tetrahydro-1H-pyrazolo[3,4-c]pyridine-3-carboxamide]",300 to 1000 nM,10 to 40 µM
"Cc1ccncc1CNC(=O)c1nn(-c2cccc(Cl)c2)c2c1CCN(c1ccc3c(c1)C(=O)N(CCO)CC3)C2=O [Example 1236, 1-(3-chlorophenyl)-6-(2-(2-hydroxyethyl)-1-oxo-1,2,3,4-tetrahydroisoquinolin-7-yl)-N-((4-methylpyridin-3-yl)methyl)-7-oxo-4,5,6,7-tetrahydro-1H-pyrazolo[3,4-c]pyridine-3-carboxamide]",10 to 100 nM,> 40 µM
"CN1CCc2ccc(N3CCc4c(C(=O)NC5COC5)nn(-c5cccc(Cl)c5)c4C3=O)cc2C1=O [Example 1342, 1-(3-chlorophenyl)-6-(2-methyl-1-oxo-1,2,3,4-tetrahydroisoquinolin-7-yl)-N-(oxetan-3-yl)-7-oxo-4,5,6,7-tetrahydro-1H-pyrazolo[3,4-c]pyridine-3-carboxamide]",300 to 1000 nM,> 40 µM
"Cc1cc(CNC(=O)c2nn(-c3cccc(Cl)c3)c3c2CCN(c2ccc4c(c2)C(=O)N(CC2CCOC2)CC4)C3=O)nn1C (centres unmarked) [Example 1258, 1-(3-chlorophenyl)-N-((1,5-dimethyl-1H-pyrazol-3-yl)methyl)-7-oxo-6-(1-oxo-2-((tetrahydrofuran-3-yl)methyl)-1,2,3,4-tetrahydroisoquinolin-7-yl)-4,5,6,7-tetrahydro-1H-pyrazolo[3,4-c]pyridine-3-carboxamide]",100 to 300 nM,> 40 µM
"CCN1CCOc2ccc(N3CCc4c(C(=O)NCc5cc(C)[nH]n5)nn(-c5cccc(Cl)c5)c4C3=O)cc2C1=O [Example 1352, 1-(3-chlorophenyl)-6-(4-ethyl-5-oxo-2,3,4,5-tetrahydrobenzo[f][1,4]oxazepin-7-yl)-N-((5-methyl-1H-pyrazol-3-yl)methyl)-7-oxo-4,5,6,7-tetrahydro-1H-pyrazolo[3,4-c]pyridine-3-carboxamide]",10 to 100 nM,3 to 10 µM
"CN1CCc2ccc(N3CCc4c(C(=O)NC5(CO)CC5)nn(-c5cccc(Cl)c5)c4C3=O)cc2C1=O [Example 1360, 1-(3-chlorophenyl)-N-(1-(hydroxymethyl)cyclopropyl)-6-(2-methyl-1-oxo-1,2,3,4-tetrahydroisoquinolin-7-yl)-7-oxo-4,5,6,7-tetrahydro-1H-pyrazolo[3,4-c]pyridine-3-carboxamide]",300 to 1000 nM,10 to 40 µM
"Cc1nc2c(C(=O)NCC3CC3)nn(-c3cccc(Cl)c3)c2c(=O)n1-c1ccc2c(c1)CN(C)CC2 [Example 3004, 1-(3-chlorophenyl)-N-(cyclopropylmethyl)-5-methyl-6-(2-methyl-1,2,3,4-tetrahydroisoquinolin-7-yl)-7-oxo-6,7-dihydro-1H-pyrazolo[4,3-d]pyrimidine-3-carboxamide]",100 to 300 nM,3 to 10 µM
"Cc1cc(CNC(=O)c2nn(-c3cccc(Cl)c3)c3c2CCN(c2ccc4c(c2)N(C)C(=O)CC4)C3=O)nn1C [Example 1208, 1-(3-chlorophenyl)-N-((1,5-dimethyl-1H-pyrazol-3-yl)methyl)-6-(1-methyl-2-oxo-1,2,3,4-tetrahydroquinolin-7-yl)-7-oxo-4,5,6,7-tetrahydro-1H-pyrazolo[3,4-c]pyridine-3-carboxamide]",1000 to 3000 nM,10 to 40 µM
"COc1ccnc(CNC(=O)c2nn(-c3cccc(Cl)c3)c3c2CCN(c2ccc4c(c2)CN(CCO)CC4)C3=O)c1 [Example 1230, 1-(3-chlorophenyl)-6-(2-(2-hydroxyethyl)-1,2,3,4-tetrahydroisoquinolin-7-yl)-N-((4-methoxypyridin-2-yl)methyl)-7-oxo-4,5,6,7-tetrahydro-1H-pyrazolo[3,4-c]pyridine-3-carboxamide]",10 to 100 nM,10 to 40 µM
"CCNC(=O)c1nn(-c2cccc(Cl)c2)c2c1CCN(c1cccc(N3CCCN(C)C3=O)c1)C2=O [Example 1390, 1-(3-chlorophenyl)-N-ethyl-6-(3-(3-methyl-2-oxotetrahydropyrimidin-1(2H)-yl)phenyl)-7-oxo-4,5,6,7-tetrahydro-1H-pyrazolo[3,4-c]pyridine-3-carboxamide]",1000 to 3000 nM,> 40 µM
"CN1CCc2ccc(N3CCc4c(CNS(C)(=O)=O)nn(-c5cccc(Cl)c5)c4C3=O)cc2C1=O [Example 1403, N-((1-(3-chlorophenyl)-6-(2-methyl-1-oxo-1,2,3,4-tetrahydroisoquinolin-7-yl)-7-oxo-4,5,6,7-tetrahydro-1H-pyrazolo[3,4-c]pyridin-3-yl)methyl)methanesulfonamide]",1000 to 3000 nM,3 to 10 µM
"Cc1cc(CNC(=O)c2nn(-c3cccc(Cl)c3)c3c2CCN(c2ccc4c(c2)C(=O)N(CCO)[C@H](C)CO4)C3=O)nn1C [Example 1329, (R)-1-(3-chlorophenyl)-N-((1,5-dimethyl-1H-pyrazol-3-yl)methyl)-6-(4-(2-hydroxyethyl)-3-methyl-5-oxo-2,3,4,5-tetrahydrobenzo[f][1,4]oxazepin-7-yl)-7-oxo-4,5,6,7-tetrahydro-1H-pyrazolo[3,4-c]pyridine-3-carboxamide]",300 to 1000 nM,> 4 µM
"Cc1cc(CNC(=O)c2nn(-c3cccc(Cl)c3)c3c2CCN(c2ccc4c(c2)CCN(C)C4=O)C3=O)nn1C [Example 1205, 1-(3-chlorophenyl)-N-((1,5-dimethyl-1H-pyrazol-3-yl)methyl)-6-(2-methyl-1-oxo-1,2,3,4-tetrahydroisoquinolin-6-yl)-7-oxo-4,5,6,7-tetrahydro-1H-pyrazolo[3,4-c]pyridine-3-carboxamide]",10000 to 40000 nM,> 40 µM
